Experimental data published in ChEMBL document CHEMBL4325858, “Quantitative and systems pharmacology 4. Network-based analysis of drug pleiotropy on coronary artery disease” (Eur J Med Chem, 2019).

Molecular target: T1, Prostaglandin G/H synthase 2 (Homo sapiens, UniProt P35354)
T1 sequence (P35354 whole entry): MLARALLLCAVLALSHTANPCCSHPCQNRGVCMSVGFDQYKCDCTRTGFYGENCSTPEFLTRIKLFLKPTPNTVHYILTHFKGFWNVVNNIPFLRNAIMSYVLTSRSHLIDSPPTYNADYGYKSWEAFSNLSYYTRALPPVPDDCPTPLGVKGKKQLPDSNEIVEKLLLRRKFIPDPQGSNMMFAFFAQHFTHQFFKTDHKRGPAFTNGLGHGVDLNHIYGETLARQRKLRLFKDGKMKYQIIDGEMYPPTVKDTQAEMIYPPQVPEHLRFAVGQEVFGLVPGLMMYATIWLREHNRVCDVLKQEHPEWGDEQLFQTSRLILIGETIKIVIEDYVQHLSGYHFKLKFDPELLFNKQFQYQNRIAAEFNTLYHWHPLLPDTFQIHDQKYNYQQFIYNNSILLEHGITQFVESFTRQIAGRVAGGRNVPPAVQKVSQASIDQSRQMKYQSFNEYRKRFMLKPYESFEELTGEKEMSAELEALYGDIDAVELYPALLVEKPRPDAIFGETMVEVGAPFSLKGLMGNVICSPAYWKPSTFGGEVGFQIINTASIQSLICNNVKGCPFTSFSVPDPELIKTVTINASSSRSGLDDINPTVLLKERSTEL
Assay: Inhibition of recombinant human COX2 expressed in baculovirus infected Sf9 insect cells using arachidonic acid as substrate preincubated for 10 mins followed by substrate addition and measured after 10 mins by ELISA

IC50: 5 nM
Structure (SMILES): CCC(=O)NS(=O)(=O)c1ccc(-c2c(-c3ccccc3)noc2C)cc1 [PARECOXIB]
